# Experimental data from patent US6706839B1, “Chemical partitioning agents and methods of using same” (University of Pittsburgh, priority 1999, dated 2004).
# Assay: Solubility of stilbene precipiton isomers in organic solvents (qualitative observations)
# Format: physicochemical
# Settings: for solubility in THF: reaction solvent of the Z to E isomerization
# Method: When a solution of (Z)-stilbene (51Z or 52Z) in THF was heated to reflux at 80-90° C. in the presence of Ph2S2 (0.2 equiv) for several hours, the Z to E isomerization occurred smoothly. The reaction was followed by ^1H NMR (either vinylic protons or NMe2 (51Z), OMe (52Z)). As the reaction proceeded, solid precipitate came out of the solution. […] The E-isomer was obtained pure in a 44% (51E) and 79% (52E) yield, respectively without any contamination of either Z-isomer or Ph2S2. […] In high-boiling solvents such as toluene and p-dioxane, the isomerization was faster than in THF and the reaction was completed in less than 3 h (Table 32). A second catalytic method for isomerization/precipitation employs iodine and a radical initiator, for example dibenzoylperoxide. Irradiation of the cis-alkenes in the presence of 1-50 mol % iodine and 0.1-25 mol % dibenzoylperoxide affords clean isomerization of the cis to trans alkene.
# (2-Naphthalenylmethyl)triphenylphosphonium bromide ((a) Tinnemans, A. H. A.; Laarhoven, W. H. J. Chem. Soc. Perkin. Trans. 2, 1976, 1104-1111. (b) Zelikovich, L.; Hoffman, R. E.; Ayalon, A.; Rabinovitz, M. J. Chem. Soc. Perkin. Trans. 2, 1992, 1785-1792) was treated with NaH in DMF to generate a corresponding ylide. A solution of 4-methoxy-1-naphthaldehyde in DMF was added and stirred at 35-50° C. for 2 h at to give 1,2-naphthylstilbene 53 in 51% yield (53Z:53E=1:1.2). 6-Methoxy-2-naphthaldehyde ((a) Harvey, R. G.; Cortez, C.; Sawyer, T. W.; DiGiovanni, J.; J. Med. Chem. 1988, 31, 1308-1312. (b) Harvey, R. G.; Cortez, C. Tetrahedron, 1997, 53, 7101-7118) was prepared by formylation (Beringer, F. M.; Nathan, R. A. J. Org. Chem. 1969, 34, 685-689) of 6-methoxy-2-bromonaphthalene in 53% yield. When (2-naphthalenylmethyl)-triphenylphosphonium bromide was reacted with 6-methoxy-2-naphthaldehyde in a similar manner as 1,2-naphthylstilbene, (Z)-2,2-naphthylstilbene 54Z was prepared in 39% isolated yield. […]
Structure (SMILES),"solubility in Et2O, compared with 52E (Et2O, trituration solvent, relative to 52E)",solubility in THF
CN(C)c1ccc(/C=C/c2ccc(Br)cc2)cc1 [51E],bigger solubility,partially soluble
COc1ccc(/C=C/c2ccc(-c3ccccc3)cc2)cc1 [52E],,partially soluble
